# Measurements reported in patent publication US5807535A, “Metal complexes of hydroxyaryl containing aminocarboxylic acid chelating agents” (Australian Nuclear Science & Technology Organisation, priority 1992, dated 1998).
# Experiment: Biodistribution of 99mTc complexes in mice
# Assay type: in vivo, Balb/c mice
# Source text: A series of derivatives incorporating carboxyl and phenolate donor groups (1-6) were synthesised by literature method and their radiolabelling characteristic and biological behaviour evaluated. Initial work involved an investigation of radiochemical properties of the ^99m Tc complexes of the ligands and their biodistribution in rats and mice (see Tables 1-6 and 8-12).
# A typical method of radiolabelling of the chelator was achieved by dissolving the chelator in a basic solution of saline. The pH was then adjusted to approx. 6 with HCl. Excess stannous chloride was added to the resultant solution followed by one equivalent volume of sodium ^99m TcO4 (10-50 mCi/ml). Final concentration of the chelator was approx. 1 mg/ml. The efficacy of labelling was determined by ITLC-SG. For each product only one main radiochemical species was observed. Each complex was diluted to 15 μCi/100 μl with saline. […] (See FIGS. 1A and 1B).
structure (smiles),measurement,setting,value
O=C(O)CN(CCN(CC(=O)O)CC(=O)Nc1ccc(Cl)cc1O)CC(=O)Nc1ccc(Cl)cc1O [Compound 2],biodistribution GIT,1 min,3.74 % Injected dose
same,biodistribution blood,1 min,23.14 % Injected dose
same,biodistribution bone,1 min,7.88 % Injected dose
same,biodistribution heart,1 min,0.49 % Injected dose
same,biodistribution kidney,1 min,8.04 % Injected dose
same,biodistribution liver,1 min,14.68 % Injected dose
same,biodistribution lungs,1 min,1.36 % Injected dose
same,biodistribution muscle,1 min,19.67 % Injected dose
same,biodistribution skin,1 min,13.37 % Injected dose
same,biodistribution spleen,1 min,0.19 % Injected dose
same,biodistribution stomach,1 min,0.67 % Injected dose
same,biodistribution tail,1 min,4.05 % Injected dose
same,biodistribution urine,1 min,0.09 % Injected dose
same,biodistribution GIT,3 min,4.86 % Injected dose
same,biodistribution blood,3 min,14.96 % Injected dose
same,biodistribution bone,3 min,6.29 % Injected dose
same,biodistribution heart,3 min,0.34 % Injected dose
same,biodistribution kidney,3 min,10.44 % Injected dose
same,biodistribution liver,3 min,14.52 % Injected dose
same,biodistribution lungs,3 min,1.19 % Injected dose
same,biodistribution muscle,3 min,14.89 % Injected dose
same,biodistribution skin,3 min,13.1 % Injected dose
same,biodistribution spleen,3 min,0.16 % Injected dose
same,biodistribution stomach,3 min,0.998 % Injected dose
same,biodistribution tail,3 min,6.89 % Injected dose
same,biodistribution urine,3 min,2.78 % Injected dose
same,biodistribution GIT,5 min,3.38 % Injected dose
same,biodistribution blood,5 min,7.4 % Injected dose
same,biodistribution bone,5 min,2.99 % Injected dose
same,biodistribution heart,5 min,0.22 % Injected dose
same,biodistribution kidney,5 min,5.45 % Injected dose
same,biodistribution liver,5 min,7.75 % Injected dose
same,biodistribution lungs,5 min,0.72 % Injected dose
same,biodistribution muscle,5 min,6.73 % Injected dose
same,biodistribution skin,5 min,7.96 % Injected dose
same,biodistribution spleen,5 min,0.07 % Injected dose
same,biodistribution stomach,5 min,0.6 % Injected dose
same,biodistribution tail,5 min,30.12 % Injected dose
same,biodistribution urine,5 min,1.06 % Injected dose
same,biodistribution GIT,10 min,8.11 % Injected dose
same,biodistribution blood,10 min,7.15 % Injected dose
same,biodistribution bone,10 min,2.76 % Injected dose
same,biodistribution heart,10 min,0.15 % Injected dose
same,biodistribution kidney,10 min,5.14 % Injected dose
same,biodistribution liver,10 min,7.95 % Injected dose
same,biodistribution lungs,10 min,0.53 % Injected dose
same,biodistribution muscle,10 min,8.73 % Injected dose
same,biodistribution skin,10 min,11.02 % Injected dose
same,biodistribution spleen,10 min,0.06 % Injected dose
same,biodistribution stomach,10 min,1.3 % Injected dose
same,biodistribution tail,10 min,18.31 % Injected dose
same,biodistribution urine,10 min,2.67 % Injected dose
same,biodistribution GIT,30 min,16.24 % Injected dose
same,biodistribution blood,30 min,3.58 % Injected dose
same,biodistribution bone,30 min,2.27 % Injected dose
same,biodistribution heart,30 min,0.09 % Injected dose
same,biodistribution kidney,30 min,4 % Injected dose
same,biodistribution liver,30 min,5.71 % Injected dose
same,biodistribution lungs,30 min,0.43 % Injected dose
same,biodistribution muscle,30 min,5.48 % Injected dose
same,biodistribution skin,30 min,5.58 % Injected dose
same,biodistribution spleen,30 min,0.05 % Injected dose
same,biodistribution stomach,30 min,2.06 % Injected dose
same,biodistribution tail,30 min,7.67 % Injected dose
same,biodistribution urine,30 min,3.84 % Injected dose
CC(C)(C)c1ccc(O)c(NC(=O)CN(CCN(CC(=O)O)CC(=O)Nc2cc(C(C)(C)C)ccc2O)CC(=O)O)c1 [Compound 4],biodistribution GIT,1 min,3.96 % Injected dose
same,biodistribution bladder,1 min,0.06 % Injected dose
same,biodistribution blood,1 min,34.01 % Injected dose
same,biodistribution bone,1 min,6.4 % Injected dose
same,biodistribution heart,1 min,0.6 % Injected dose
same,biodistribution kidney,1 min,7.83 % Injected dose
same,biodistribution liver,1 min,31.82 % Injected dose
same,biodistribution lungs,1 min,1.29 % Injected dose
same,biodistribution muscle,1 min,11.85 % Injected dose
same,biodistribution skin,1 min,8.94 % Injected dose
same,biodistribution spleen,1 min,0.21 % Injected dose
same,biodistribution stomach,1 min,0.52 % Injected dose
same,biodistribution tail,1 min,4.62 % Injected dose
same,biodistribution urine,1 min,0 % Injected dose
same,biodistribution GIT,3 min,8.34 % Injected dose
same,biodistribution bladder,3 min,0.09 % Injected dose
same,biodistribution blood,3 min,12.06 % Injected dose
same,biodistribution bone,3 min,2.5 % Injected dose
same,biodistribution heart,3 min,0.22 % Injected dose
same,biodistribution kidney,3 min,6.27 % Injected dose
same,biodistribution liver,3 min,40.23 % Injected dose
same,biodistribution lungs,3 min,0.56 % Injected dose
same,biodistribution muscle,3 min,9.92 % Injected dose
same,biodistribution skin,3 min,9.02 % Injected dose
same,biodistribution spleen,3 min,0.12 % Injected dose
same,biodistribution stomach,3 min,0.61 % Injected dose
same,biodistribution tail,3 min,2.02 % Injected dose
same,biodistribution urine,3 min,0.84 % Injected dose
same,biodistribution GIT,5 min,13.7 % Injected dose
same,biodistribution bladder,5 min,0.04 % Injected dose
same,biodistribution blood,5 min,7.87 % Injected dose
same,biodistribution bone,5 min,2.84 % Injected dose
same,biodistribution heart,5 min,0.16 % Injected dose
same,biodistribution kidney,5 min,4.18 % Injected dose
same,biodistribution liver,5 min,30.24 % Injected dose
same,biodistribution lungs,5 min,0.68 % Injected dose
same,biodistribution muscle,5 min,7.77 % Injected dose
same,biodistribution skin,5 min,8.67 % Injected dose
same,biodistribution spleen,5 min,0.1 % Injected dose
same,biodistribution stomach,5 min,3.96 % Injected dose
same,biodistribution tail,5 min,4.63 % Injected dose
same,biodistribution urine,5 min,1.55 % Injected dose
same,biodistribution GIT,10 min,33.63 % Injected dose
same,biodistribution bladder,10 min,0.17 % Injected dose
same,biodistribution blood,10 min,5.04 % Injected dose
same,biodistribution bone,10 min,2.08 % Injected dose
same,biodistribution heart,10 min,0.13 % Injected dose
same,biodistribution kidney,10 min,3.57 % Injected dose
same,biodistribution liver,10 min,21.19 % Injected dose
same,biodistribution lungs,10 min,0.52 % Injected dose
same,biodistribution muscle,10 min,4.95 % Injected dose
same,biodistribution skin,10 min,7.3 % Injected dose
same,biodistribution spleen,10 min,0.07 % Injected dose
same,biodistribution stomach,10 min,0.7 % Injected dose
same,biodistribution tail,10 min,3.58 % Injected dose
same,biodistribution urine,10 min,4.27 % Injected dose
same,biodistribution GIT,30 min,39.97 % Injected dose
same,biodistribution bladder,30 min,0.08 % Injected dose
same,biodistribution blood,30 min,3.88 % Injected dose
same,biodistribution bone,30 min,1.67 % Injected dose
same,biodistribution heart,30 min,0.05 % Injected dose
same,biodistribution kidney,30 min,3.67 % Injected dose
same,biodistribution liver,30 min,12.48 % Injected dose
same,biodistribution lungs,30 min,0.26 % Injected dose
same,biodistribution muscle,30 min,3.35 % Injected dose
same,biodistribution skin,30 min,4 % Injected dose
same,biodistribution spleen,30 min,0.06 % Injected dose
same,biodistribution stomach,30 min,4.84 % Injected dose
same,biodistribution tail,30 min,1.91 % Injected dose
same,biodistribution urine,30 min,3.21 % Injected dose
